The values below are quoted from earlier work in patent US20230111568A1, “SOLID DISPERSIONS OF RIFAXIMIN FOR THE TREATMENT OF OVERT HEPATIC ENCEPHALOPATHY” (Bausch Health Ireland Limited, priority 2020, published 2023).

For the series, the system named is complications of cirrhosis.

As for `CO[C@H]1/C=C/O[C@@]2(C)Oc3c(C)c(O)c4c(O)c(c5c(nc6cc(C)ccn65)c4c3C2=O)NC(=O)/C(C)=C\C=C\[C@H](C)[C@H](O)[C@@H](C)[C@@H](O)[C@@H](C)[C@H](OC(C)=O)[C@@H]1C` [rifaximin], the “HE recurrences, hospitalizations, adverse events, survival” value (literature (Conf. Proc. IEEE Eng. Med. Biol. Soc. 2013)) was “protect from HE recurrences with decreased HE-related and all-cause hospitalizations without an increased rate of adverse events (AEs) or decreased survival”. In addition, for the setting “literature (Conf. Proc. IEEE Eng. Med. Biol. Soc.)”, the “overall rates of infection, antibiotic use and other complications of cirrhosis” value is “reduces or maintains the overall rates of infection, antibiotic use, and other complications of cirrhosis such as ascites”. Besides, for the setting “literature (Journal of Gastroenterology and Hepatology 28(3))”, the “survival and risk of variceal bleeding, HE, SBP or HRS” value was “independently associated with higher survival and lower risk of developing variceal bleeding, HE, SBP, or HRS”.
